The text below walks through data of ChEMBL document CHEMBL1201862, “PubChem BioAssay data set” (2004).

What all share (assay): growth of human tumour cells (NCI), 48 h
Experiment [1] relates to K562.
For experiment [2], the system named is SN12C.
For experiment [3], the system named is NCI-H23.
Experiment [4] concerns EKVX.
In experiment [5] the test system is CCRF-CEM.
In experiment [6] the test system is UO-31.
Experiment [7] relates to SW-620.
Experiment [8] concerns XF498.
Experiment [9] has as its system NCI-H522.
The test system of experiment [10] is OVCAR-3.
Experiment [11] concerns SK-MEL-5.
Experiment [12] has as its system NCI-H460.
Experiment [13] relates to HOP-92.
Experiment [14] concerns ACHN.
Experiment [15] relates to M14.
In experiment [16] the test system is SNB-75.
In experiment [17] the test system is HCT-116.

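Values below derive from 48-hour exposures of cells grown in 96-well plates, with endpoints linearly interpolated between the two concentrations bracketing the appropriate inhibition level. At the GI50, growth is halved.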 Activity calls are given as the source filed them. Rule as the data show it: active = GI50 up to about 1.1 µM and inactive = higher.

Regarding `CN(CC(=O)O)S(=O)(=O)c1ccc2ccccc2c1`, the GI50 in experiment [1], in experiment [2], in experiment [3], in experiment [4], in experiment [5] and in experiment [6] was > 100 µM (inactive) each time. Moreover, the GI50 in experiment [7], in [8], in experiment [9], in experiment [10], in experiment [11] and in [12] was > 100 µM (inactive) each time. Further, the GI50 in [13], in [14], in experiment [15] and in experiment [16] was > 100 µM (inactive) each time.

As for `CC(Oc1ccc2c(-c3ccc(Cl)cc3)cc(=O)oc2c1)C(=O)O` (stereo unspecified), the GI50 in experiment [1], in [2], in experiment [3], in experiment [4], in experiment [17] and in [5] was > 100 µM (inactive) throughout. Also, the GI50 in [6] was > 100 µM (inactive); in experiment [7], > 100 µM (inactive); in experiment [8], 2.35 µM (inactive); in experiment [9], > 100 µM (inactive); in experiment [10] it was > 100 µM (inactive); in experiment [11], > 100 µM (inactive). For the same molecule, the GI50 in experiment [12], in experiment [13], in experiment [14], in experiment [15] and in experiment [16] was > 100 µM (inactive) each time.

Consider `CC(C)(C)N/N=C(\C(=O)Nc1cccc(Cl)c1)C1C(=O)Nc2ccccc2[S+]1[O-]` (stereo unspecified), for which the GI50 in experiment [2] is > 100 µM (inactive); in experiment [3] it was > 100 µM (inactive); in [4] it was > 100 µM (inactive); in experiment [17], > 10 µM (inactive); in experiment [5], > 100 µM (inactive); in experiment [6], > 100 µM (inactive). For the same molecule, the GI50 in experiment [7], in experiment [8], in experiment [9], in [10], in [11] and in experiment [12] was > 100 µM (inactive) in each case. For the same molecule, the GI50 is 74.8 µM (inactive) in [13], > 100 µM (inactive) in experiment [14], > 100 µM (inactive) in [15] and > 100 µM (inactive) in experiment [16].

Turning to `Cc1ccc(NC(=O)C2C(=O)N(c3ccc(C)cc3)C(=O)/C2=N\NC(N)=S)cc1` (stereo unspecified), the GI50 in experiment [1], in experiment [2], in [3], in [4], in [17] and in [6] was > 100 µM (inactive) in each case. For the same molecule, the GI50 in experiment [7], in experiment [8], in experiment [9], in experiment [10], in experiment [11] and in [12] was > 100 µM (inactive) each time. In addition, the GI50 in experiment [13], in experiment [14], in experiment [15] and in experiment [16] was > 100 µM (inactive) throughout.

Take `COc1ccc(-c2c(N)[n+]([O-])c3cc(C)c(C)cc3[n+]2[O-])cc1OC`: the GI50 in [1] was 69.7 µM (inactive); in experiment [2] it was > 100 µM (inactive); in experiment [3], 34 µM (inactive); in experiment [4], > 100 µM (inactive); in experiment [5] it was 78 µM (inactive); in experiment [6], 54 µM (inactive). In addition, the GI50 was 74.8 µM (inactive) in [7]; > 100 µM (inactive) in [8]; 17.5 µM (inactive) in experiment [9]; > 100 µM (inactive) in experiment [10]; 30.9 µM (inactive) in [11]; > 100 µM (inactive) in experiment [12]. The results for the GI50 in [14], in experiment [15] and in experiment [16] were > 100 µM (inactive), 55.6 µM (inactive) and 36.4 µM (inactive), respectively.

With `O=c1n(-c2ccccc2)c(=O)n2n1C1C=CC2C2C(C1)C2(Cl)Cl` (stereo unspecified), the GI50 in [1], in [2], in experiment [4], in [17], in [5] and in experiment [6] was > 100 µM (inactive) in each case. In addition, the GI50 in experiment [7], in [8], in experiment [9], in [10], in experiment [11] and in [12] was > 100 µM (inactive) throughout. Moreover, the GI50 in experiment [14], in experiment [15] and in experiment [16] was > 100 µM (inactive) each time.

`Fc1ccc2c(c1)cc1ccc3cccc4ccc2c1c34`: the GI50 in [1] was > 100 µM (inactive); in experiment [2] it was > 100 µM (inactive); in experiment [3] it was > 100 µM (inactive); in [4], 5.02 µM (inactive); in experiment [17] it was > 100 µM (inactive); in experiment [5], > 100 µM (inactive). For the same molecule, the GI50 in experiment [6], in [7], in experiment [8], in experiment [9], in experiment [10] and in experiment [11] was > 100 µM (inactive) in each case. The GI50 in experiment [13], in experiment [14], in experiment [15] and in [16] was > 100 µM (inactive) throughout.

Consider `C=C(C)CC(C)(c1cc2ccccc2n1C)N1CCOCC1` (stereo unspecified), for which the GI50 is 93.5 µM (inactive) in experiment [2]; 55.1 µM (inactive) in experiment [3]; 36.4 µM (inactive) in [4]; 60.1 µM (inactive) in experiment [17]; 44.5 µM (inactive) in [5]; 22.9 µM (inactive) in experiment [6]. Further, the GI50 was > 100 µM (inactive) in experiment [7]; 50.6 µM (inactive) in experiment [8]; 10.6 µM (inactive) in experiment [9]; 66.5 µM (inactive) in experiment [10]; 42.2 µM (inactive) in experiment [11]; 60.8 µM (inactive) in experiment [12]. Besides, the GI50 in [13] is 14.8 µM (inactive); in experiment [14], 62.2 µM (inactive); in experiment [15] it was 70 µM (inactive); in experiment [16] it was > 100 µM (inactive).

As to `COc1ccc2ccc3c(c2c1)CN1CCc2cc(OC)c(OC)cc2C1C3` (stereo unspecified), the GI50 in [1], in experiment [2], in [3], in experiment [4], in experiment [5] and in experiment [6] was > 100 µM (inactive) throughout. The GI50 in experiment [7] was > 100 µM (inactive); in [8] it was 60.3 µM (inactive); in experiment [9] it was > 100 µM (inactive); in experiment [10] it was > 100 µM (inactive); in experiment [11], > 100 µM (inactive); in [12] it was > 100 µM (inactive). The GI50 in experiment [13] is > 100 µM (inactive); in experiment [14], > 100 µM (inactive); in [15] it was > 100 µM (inactive); in [16] it was 28.1 µM (inactive).

Consider `CC(C)(C)c1cc(C(O)(C(F)(F)F)C(F)(F)F)c2c(c1)C(C(F)(F)F)(C(F)(F)F)OC(C)(C(C)(C)C)N2` (stereo unspecified), for which the GI50 was 2.9 µM (inactive) in experiment [1]; 4.45 µM (inactive) in experiment [2]; 2 µM (inactive) in experiment [3]; 3.94 µM (inactive) in experiment [4]; 3.42 µM (inactive) in experiment [17]; 2.97 µM (inactive) in experiment [6]. Also, the GI50 in experiment [7] was 3.68 µM (inactive); in experiment [8], 1.63 µM (inactive); in experiment [9] it was 1.82 µM (inactive); in [10], 0.776 µM (active); in experiment [11] it was 2.01 µM (inactive); in [12], 2.48 µM (inactive). Also, the GI50 is < 0.01 µM (active) in [13], 3.06 µM (inactive) in experiment [14], 0.653 µM (active) in experiment [15] and 2 µM (inactive) in experiment [16].

On to `C/C(=C\C(C[C@](C)(O)C(O)CCC#C[Si](C)(C)C)S(=O)(=O)c1ccccc1)CC/C=C/CO[Si](C)(C)C(C)(C)C` (stereo partly specified), for which the GI50 in [1] is 10.7 µM (inactive); in experiment [2] it was 6.24 µM (inactive); in experiment [3] it was 18.2 µM (inactive); in [4], 19.7 µM (inactive); in experiment [17], 13.4 µM (inactive); in experiment [5], 10.6 µM (inactive). For the same molecule, the GI50 in experiment [6] was 21.9 µM (inactive); in [7] it was 17.3 µM (inactive); in experiment [8], 13.2 µM (inactive); in [9] it was 16.2 µM (inactive); in [10], 16 µM (inactive); in [11], 13.6 µM (inactive). The GI50 in [12] was 12.5 µM (inactive); in experiment [13], 11.9 µM (inactive); in experiment [14], 16 µM (inactive); in experiment [15] it was 17.9 µM (inactive).

With `O=c1/c(=C/c2ccccc2[N+](=O)[O-])sc2nnc(-c3cccnc3)n12`, the GI50 in experiment [1] was 74.1 µM (inactive); in experiment [2], > 100 µM (inactive); in experiment [3], > 100 µM (inactive); in [4] it was > 100 µM (inactive); in experiment [17] it was > 100 µM (inactive); in experiment [5], 55.8 µM (inactive). Besides, the GI50 in experiment [6] was > 100 µM (inactive); in [7], 7.03 µM (inactive); in experiment [8], > 100 µM (inactive); in [10], > 100 µM (inactive); in experiment [11], > 100 µM (inactive); in experiment [12] it was > 100 µM (inactive). Besides, the GI50 in [13], in [14], in experiment [15] and in [16] was > 100 µM (inactive) each time.
